Laboratory results reported in patent publication US20060241067A1, “Methods For inhibiting angiogenesis, cell migration, cell adhesion, and cell survival” (priority 2002, published 2006).
Where two headings read alike, the source gives them in different places. Where a SMILES comes first, the peptide text is derived from it. Where no end group is shown, it is not given here. The star is where a group is joined. Cbz = O=C(OCc1ccccc1)*; CH2F = FC*

How the values were obtained:
[1] = tested on: protein kinase A; test: PKA activity assay in HUVECs; format: cell-based, human
Procedure: PKA activity was measured in HUVECs essentially as previously described in Kim et al (S. Kim et al., Amer. J. Biol. Chem., 275:33920-33928 (02000)). HUVECs were placed in suspension, allowed to attach to ECM protein coated plates in the absence or presence of anti-integrin antibodies or were treated with 10 μM PTHrP and/or 250 μM cAMP. PKA activity was measured at various times from 0-4 hrs (e.g., 2-30 min).
Plates were washed and blocked in 3% bovine serum albumin for 1 hour at 37° C. HUVECS were trypsinized and resuspended in adhesion buffer (Hanks balanced salt solution supplemented with 10 mM HEPES, pH 7.4, 2 mM MgCl2, 2 mM CaCl2, 0.2 mM MnCl2, 1% BSA. Cells were plated on matrix protein coated plates in culture medium or in the presence of 25 μg/ml anti-α5β1, anti-αvβ3 or anti-α2β1 antibodies for various times from 0 minutes to 4 hours. Plates were washed with phosphate buffered saline and cells were extracted with cold extraction buffer (50 mM Tris, pH 7.5, 5 mM EDTA, 25 μg/ml aprotinin and 25 μg/ml leupeptin). Protein Kinase A activity was assessed using a kit from Gibco BRL. Briefly, equal volumes of lysate and reaction mixture containing final concentrations of 50 mM Tris, pH 7.5, 10 mM MgCl2, 0.25 mg/ml BSA, 50 μM Kemptide (a protein kinase A substrate), 3000 Ci/mmol (γ^32 P) ATP and 100 μM ATP were combined for 5 minutes at 30° C. Total PKA in each sample was measured by performing the assay in the presence of 10 μM cAMP. Background PKA activity in test and total PKA samples were determined by performing the assay in the presence of a PKA inhibitor peptide, PKI (6-22) amide. Twenty μl samples of reaction mixtures were spotted onto phosphocellulose discs and washed repeatedly with 1% (v/v) phosphoric acid in water. Incorporated radioactivity was determined by scintillation counting. Activated PKA was calculated from the ratio of pmol/min test sample PKA to pmol/min total PKA. PKA activity in triplicate samples was measured and experiments were repeated at least three times.
In another embodiment, PKA assays were performed with a kit from Calbiochem (San Diego, Calif.). Cell lysates were incubated in ELISA plates coated with a PKA peptide substrate, then incubated with anti-phosphoserine antibodies. Bound antibody was detected after incubation with anti-rabbit IgG-horse radish peroxidase. Statistical analyses were performed using Student's t-test.

[2] = tested on: chick chorioallantoic membrane (CAM); test: Chick chorioallantoic membrane (CAM) angiogenesis assay; format: in vivo, chicken; details: for effect on inhibition of angiogenesis by anti-αvβ3: 500 μM caspase inhibitors; for effect on inhibition of angiogenesis by anti-α5β1: 500 μM caspase inhibitors or 4 μg plasmid; for angiogenesis (blood vessel branch points, vessel density): 1 μM peptide
[3] = tested on: Human umbilical vein endothelial cells (HUVEC); test: Endothelial cell migration assay (transwell) on ECM substrates; format: cell-based; details: for endothelial cell migration on vitronectin: 1 μM peptide
Procedure: Human umbilical vein endothelial cells (HUVEC) were grown in Endothelial Growth Medium (containing 2% fetal bovine serum, bFGF and VEGF) (Clonetics, San Diego, Calif.). To render HUVECs quiescent for Rac and/or Rho assays, monolayers of endothelial cells were incubated for 18 hrs in Endothelial Basal Medium supplemented with 0.1% serum (Clonetics). Cell migration and adhesion assays on ECM substrates were performed as previously described in Kim et al. (S. Kim et al., Amer. J. Biol. Chem., 275:33920-33928 (2000); and S. Kim et al., Amer. J. Path., 156:1345-1362 (2000)).
Migration assays were performed essentially as described (Kim, et. al., 2000). […] HUVECS (25,000) were added to the upper chamber of inserts in migration buffer (Hepes buffered M199 medium containing 1% BSA, 2 mM MgCl2, 2 mM CaCl2 and 0.2 mM MnCl2) containing 25 μg/ml of various antibodies. In some experiments, 250 μM dibutyryl cAMP was placed in the upper and lower chambers of the transwell. Cells were allowed to migrate from the upper to the lower chamber for four hours at 37° C. The number of cells which had migrated were counted in three representative high power (200×) fields per insert. The data are presented as number of cells migrating+/−standard error of the mean. Migration assays were similarly performed on transfected cells. In this case, migrated transfected cells were identified by fluorescent microscopy and counted.

[4] = tested on: DU145 prostate carcinoma tumors; test: DU145 tumor assay in nude mice; format: in vivo; details: daily intravenous injections, ten days
[5] = tested on: chick chorioallantoic membrane (CAM); test: Apoptosis markers in CAM blood vessels in vivo (Annexin V, cleaved caspases, TUNEL, DNA gels); set-up: species or system chicken; details: for caspase activity in vivo (cleaved caspase immunoblot): CAMs treated with anti-α5β1 and caspase inhibitor; for effect on endothelial cell DNA fragmentation induced by α5β1 inhibition in vivo: TUNEL staining of CAM cryosections
Procedure: CAM assays were performed as described (Kim et al. (2000) Am. J. Path. 156:1345-1362). Saline or bFGF stimulated CAMs were treated for 24 h with 20 μg anti-α5β1, anti-αvβ3 or control antibodies and then injected intravenously with 50 μl Annexin V-FITC. CAMs were harvested after 2 h, then analyzed by confocal microscopy. Alternatively, CAMs treated as above were excised, minced on ice, and treated with 0.1% dispase/0.1% collagenase for 1 h at 37° C. Single cell suspensions were incubated with FITC-Annexin V and analyzed as described above. bFGF stimulated CAMs were also treated with anti-α5β1 or anti-αvβ3 in the presence or absence of 500 μM caspase-3, -8 or -9 inhibitors. bFGF stimulated CAMs were also transfected with 4 μg N1-GFP, dnPKA or PKAcat expression plasmids. Freshly excised CAMs were homogenized in ice cold RIPA buffer containing protease inhibitors and immunoblotted to detect intact and cleaved caspase 3 or 8. For all treatment groups, n=10. CAMs were fixed with 3.7% paraformaldehyde prior to excision. The average number of blood vessel branch points per treatment group+/−SEM is presented. Some excised CAMs were cryopreserved, cut into 5 μm sections, immunostained with anti-cleaved caspase 3, anti-cleaved caspase 8 and anti-VFW antibodies (to detect blood vessels). CAMs were also stained by the TUNEL method to detect fragmented DNA.

[6] = tested on: HUVECS; test: Annexin V-FITC staining of HUVECs (apoptosis); format: cell-based, human
Procedure: Plates were also coated with […] goat anti-mouse IgG (Southern Biotechnology Associates, Inc., Birmingham, Ala.) at 37° C. for 2 h, rinsed, blocked with denatured BSA, and then incubated with […] anti-a5b1 or control IgG (anti-MHC) at 4° C. for 16 hrs. HUVECs were incubated on plates in the presence or absence of 10 mg/ml anti-α5β1, -αvβ3, -α2β1, or -MHC for 0-24 hrs. In some experiments, HUVECs were incubated with antibodies and […] caspase-3, -8 or -9 inhibitors or vehicle control (0.5% DMSO). Cells were then incubated with Annexin V-FITC for 15 min at room temperature in the dark. Washed cells were fixed in 1% paraformaldehyde, then incubated in DAPI. The percentage of Annexin positive cells in 5 microscopic fields was determined at 200× magnification by fluorescence microscopy.
(§1) HUVECs were plated for 24 h on ECM protein-coated plates in the presence of anti-αvβ3 or anti-α5β1, 1 μM HA1004 (a PKA inhibitor), and anti-αvβ3 or anti-α5β1 with 1 μM HA1004. Cells were stained with FITC-Annexin V or immunoblotted with anti-cleaved caspase 3 antibodies as described above. 5×10^6 HUVECs were electroporated in 300 μl of EGM with 30 μg of DNA (20 μg dnPKA or PKAcat plasmids, 2 μg N1-GFP and 8 μg pBluescript) at 300 V, 450 μF as previously described (Dormond et al. (2001) Nature Med. 7,1041-7). Expression of transgenes was determined by Western blotting of cell lysates with anti-V5 and anti-GFP antibodies. Transfection efficiency was quantified by determining the percent of cells that were co-transfected with GFP-expression vectors. Eighty-percent transfection efficiency was generally achieved using this electroporation method.

[7] = tested on: HUVECS; test: Apoptosis assays in HUVECs (PARP and caspase immunoblots, caspase activity, DNA fragmentation); format: cell-based, human
Procedure: In some embodiments, HUVECs were incubated on ECM or antibody coated plates for 0-24 hrs. DNA fragmentation was detected by agarose gel electrophoresis as described in M. Herrmann et al. (See, M. Herrmann et al., Nucleic Acids Res., 22:5506-5507 (1994)). Alternatively, HUVECS on plates were lyzed with RIPA buffer (See, S. Kim et al., J. Biol. Chem., 275:33920-33928 (2000)) on ice. Lysates were electrophoresed on 8% SDS-PAGE gels and immunoblotted with anti-PARP, -caspase-3, -caspase-9, -cleaved caspase 3, or -cleaved caspase-9 antibodies. Immunoreactive bands were identified by chemiluminescence and quantified by densitometry. Caspase 3 and 8 activities were determined in cell lysates according to manufacturer's instructions (Calbiochem, La Jolla, Calif.).
as §1

Molecule: cholera toxin
- PKA activation [1]: activates PKA

Molecule: O=S(=O)(NCCNCC=Cc1ccc(Br)cc1)c1cccc2cnccc12 [H89, N-(2-(p-bromocinnamylamino)ethyl)-5-isoquinoline sulfonamide]
- effect on inhibition of angiogenesis by PTHrP ([2]; bFGF stimulated CAMs, 8B12, 480 nM H89 or dnPKA plasmid): blocks the suppression of angiogenesis induced by PTHrP 1-34
- effect on cAMP-, PKA catalytic subunit- or PTHrP-mediated inhibition of cell migration ([3]; HUVEC on vitronectin): blocked the anti-migratory properties of PTHrP

Molecule: H L Q A H S V E D L (HLQAHSVEDL) [scrambled 1-10, scrambled version of PTHrP 1-10, control peptide]
- tumor growth ([4]; final serum concentration 1 μM): but not a scrambled control peptide, suppressed tumor growth and tumor angiogenesis
- tumor angiogenesis (CD31 vessels) [4]: but not a scrambled control peptide, suppressed tumor growth and tumor angiogenesis
- endothelial cell migration on vitronectin [3]: unable to inhibit cell migration

Molecule: PTHrP 15-34: PTHrP fragment, amino acids 15-34 (IQDLRRRFFLHHLIAEIHTA)
- endothelial cell migration on vitronectin [3]: unable to inhibit cell migration

Molecule: CC[C@H](C)[C@H](NC(=O)OCc1ccccc1)C(=O)N[C@@H](CCC(=O)OC)C(=O)N[C@H](C(=O)N[C@@H](CC(=O)OC)C(=O)CF)[C@@H](C)O [caspase 8 inhibitors, z-IETD-fmk] (Cbz-IE(OMe)TD(OMe)-CH2F)
- effect on inhibition of angiogenesis by anti-αvβ3 ([2]; bFGF stimulated CAMs): partially reversed
- effect on inhibition of angiogenesis by anti-α5β1 ([2]; bFGF stimulated CAMs): fully reversed
- caspase activity in vivo (cleaved caspase immunoblot) [5]: completely blocked its activity in vivo
- effect on endothelial cell DNA fragmentation induced by α5β1 inhibition in vivo [5]: prevented in vivo endothelial cell DNA fragmentation

Molecule: PTHrP 107-138: PTHrP fragment lacking the N-terminus (TRSAWLDSGVTGSGLEGDHLSDTSTTSLELDS; UniProt P12272 143-174, looked up, fragment)
- endothelial cell migration on vitronectin [3]: not able to inhibit cell migration

Molecule: COC(=O)CC[C@H](NC(=O)[C@H](CC(=O)OC)NC(=O)OCc1ccccc1)C(=O)N[C@H](C(=O)N[C@@H](CC(=O)OC)C(=O)CF)C(C)C [caspase 3 inhibitors, z-DEVD-fmk]
- effect on inhibition of angiogenesis by anti-αvβ3 ([2]; bFGF stimulated CAMs): partially reversed
- effect on inhibition of angiogenesis by anti-α5β1 ([2]; bFGF stimulated CAMs): partially reversed
- caspase activity in vivo (cleaved caspase immunoblot) [5]: partially blocked caspase 3 activity in vivo
- effect on endothelial cell DNA fragmentation induced by α5β1 inhibition in vivo [5]: prevented in vivo endothelial cell DNA fragmentation
- effect on cell death induced by anti-α5β1 antibodies ([6]; 50 μM caspase inhibitor, cells on fibronectin or vitronectin, 24 h): blocked

Molecule: fibronectin: ECM protein used as culture substrate
- DNA fragmentation by culture substrate ([7]; HUVECs on coated plates): protects HUVECs from DNA fragmentation
- PARP cleavage by culture substrate ([7]; HUVECs on coated plates): showed little PARP cleavage
- annexin V binding of HUVECs by culture substrate ([6]; coated plates, 0-8 h): bind little annexin V

Molecule: calcitonin: a calcium regulating peptide hormone (CGNLSTCMLGTYTQDFNKFHTFPQTAIGVGAP; ends and bridges not checked; cysteine pairing not given here; UniProt P01258 85-116, looked up)
- angiogenesis (blood vessel branch points, vessel density) ([2]; bFGF stimulated CAMs): Only PTHrP inhibited angiogenesis
- pre-existing vessels (number, size, composition) ([2]; saline-stimulated CAMs): no effect on the number, size or composition of pre-existing vessels

Molecule: NC(N)=NCCNS(=O)(=O)c1cccc2cnccc12 [HA1004]
- effect on caspase 3 cleavage induced by anti-α5β1 ([7]; cells attached to vitronectin): blocked caspase 3 cleavage
- effect on apoptosis induced by integrin antagonists ([6]; PKA inhibition (1 μM HA1004 or dnPKA), 24 h): substantially suppressed the apoptosis

Molecule: pertussis toxin
- PKA activation ([1]; inventors' data, no details given): inhibits PKA activation

Molecule: PTHrP 1-86: PTHrP fragment containing the N-terminus, amino acids 1-86
- angiogenesis (blood vessel branch points, vessel density) ([2]; bFGF stimulated CAMs): potently inhibited angiogenesis
- endothelial cell migration on vitronectin [3]: inhibited migration
